≈ marks a conversion by molar mass, not a printed value. Calls of active or inactive are those of the source. The calls are words filed in the database; no cut-off is given here.
Tests used:
PANC-1 [1] = test: Cytotoxicity against human PANC-1 cells assessed as inhibition of cell growth incubated for 72 hrs by MTT assay; format: functional, cell-based; settings: PANC-1, 72 h
PANC-1 [2] = test: Antimetastatic activity in human PANC-1 cells assessed as suppression of cell migration incubated for 24 to 48 hrs by inverted microscope based scratch wound healing assay; format: functional; settings: dose 40-80 µM, time 24-48 hrs
PANC-1 [3] = test: Antimetastatic activity in human PANC-1 cells assessed as suppression of cell invasion at 40 to 80 uM incubated for 24 hrs by crystal violet staining based transwell assay; format: functional; settings: dose 40-80 µM
[4] = system: Mycobacterium tuberculosis; test: Antibacterial activity against Mycobacterium tuberculosis H37Rv ATCC 27294 assessed as inhibition of bacterial growth; format: functional
PANC-1 [5] = test: Antimetastatic activity in human PANC-1 cells assessed as inhibition of cell migration at 40 uM incubated for 24 hrs by inverted microscope based scratch wound healing assay relative to control; format: functional
PANC-1 [6] = test: Antimetastatic activity in human PANC-1 cells assessed as inhibition of cell migration at 80 uM incubated for 24 hrs by inverted microscope based scratch wound healing assay relative to control; format: functional
PANC-1 [7] = test: Antimetastatic activity in human PANC-1 cells assessed as inhibition of cell migration at 40 uM incubated for 48 hrs by inverted microscope based scratch wound healing assay relative to control; format: functional
PANC-1 [8] = test: Antimetastatic activity in human PANC-1 cells assessed as inhibition of cell migration at 80 uM incubated for 48 hrs by inverted microscope based scratch wound healing assay relative to control; format: functional
[9] = system: Mycobacterium tuberculosis; test: Antibacterial activity against Mycobacterium tuberculosis mc2 6230; format: functional
[10] = system: Mycobacterium tuberculosis; test: Antibacterial activity against Mycobacterium tuberculosis H37Rv; format: functional

SMILES	IC50 (PANC-1 [1]) [µM]	Activity (PANC-1 [2])	Activity (PANC-1 [3])	MIC [4] [µg/mL]	inhibition at 40 µM (PANC-1 [5]) [%]	inhibition at 80 µM (PANC-1 [6]) [%]	inhibition at 40 µM (PANC-1 [7]) [%]	inhibition at 80 µM (PANC-1 [8]) [%]	MIC50 [9] [µg/mL]	MIC50 [10] [µg/mL]
CCCC[C@H](CC(=O)N1N=CCC[C@H]1C(=O)N[C@H]1COC(=O)[C@@H]2CCCNN2C(=O)[C@H](C)NC(=O)[C@@H](CC(C)C)NC1=O)C(=O)O	> 100	Dose-Dependent Effect	Active	> 20	–	–	–	–	–	–
CC(C)C[C@H]1NC(=O)[C@@H](NC(=O)[C@@H]2CCC=NN2)COC(=O)[C@@H]2CCCNN2C(=O)[C@H](C)NC1=O	> 100	Dose-Dependent Effect	Active	> 20	–	–	–	–	–	–
CCCCC[C@H](CC(=O)N1N=CCC[C@H]1C(=O)N[C@H]1COC(=O)[C@@H]2CCCNN2C(=O)[C@H](C)NC(=O)[C@@H](CC(C)C)NC1=O)C(=O)O	> 100	–	Active	> 20	36	45	11	49	31 (≈ 46.7 µM)	12.5 (≈ 18.8 µM)
CC(C)C[C@H]1NC(=O)[C@@H](NC(=O)[C@@H]2CCC=NN2C(=O)CCC(=O)O)COC(=O)[C@@H]2CCCNN2C(=O)[C@H](C)NC1=O	> 100	Dose-Dependent Effect	Active	> 20	–	–	–	–	–	–
CCCCC[C@H](CC(=O)N1N=C[C@H](O)C[C@H]1C(=O)N[C@H]1COC(=O)[C@@H]2CCCNN2C(=O)[C@H](C)NC(=O)[C@@H](CC(C)C)NC1=O)C(=O)O	> 100	–	Active	> 20	11	19	11	26	–	–
